Here are results for 4 compounds from patent US11286258B2, “Nature-inspired anticancer and antibacterial motifs and pharmaceutical composition thereof” (University of Sharjah, priority 2020, dated 2022).

Each structure is given as a SMILES string.

One assay has as its system Hep3B cells. As to the kind of experiment: Western blot, apoptotic biomarkers, tumor suppressor genes and oncogenes, Hep3B. The class given is cell-based, human. The conditions noted are these: for PARP cleavage / Cleavage of caspase7 and caspase-3: 1 to 4 μM, 48 h; for Cleavage of caspase7 and caspase-3: clear at 4 μM; for c-Myc oncogene level: dose-dependent manner. How it is done: Western blotting (apoptotic biomarkers, tumor suppressor genes and oncogenes): Hep3B and HCT-116 cells were treated with 1f and 1h compounds with increasing concentrations from 1 to 4 μM for 48 h. After reaching the time point, proteins were extracted from the collected cells after their lyses, and protein quantification was performed using a Detergent compatible (DC) protein assay kit (Bio-Rad) following the manufacturer's instructions. 12% SDS-polyacrylamide gels were used to separate the proteins, following the proteins were transferred onto nitrocellulose membrane using a semi-dry transfer cell. After transfer, membranes were incubated with primary antibodies and the incubation was left overnight at 4° c. The following antibodies were implicated: anti-β actin (Cell Signalling #4970), anti-caspase3 (Cell Signalling #14220), anti-caspase-7 (Cell Signalling33 #9492), anti-PARP (Cell Signalling #9532), anti-P53 (Cell Signalling #2527), anti-C-myc (Cell Signalling #18583), and anti-BAX (#5023). Finally, membranes were incubated with secondary conjugated with horseradish peroxidase. The indicated proteins were detected by chemiluminescence.

In the next assay the test system is SKOV3. As to the kind of experiment: MTT cell viability, SKOV3. It counts as cell-based. Particulars: Homo sapiens, SK-OV-3; 48 h of drug treatment; average of three experiments. How it is done:
(§1) Cell viability studies: Cell viability was assessed using the MTT assay as described before. In brief, all cancer cell lines were seeded at a density of 4×10^4/well in 96 well flat-bottom plates. After 24 h from seeding, cells were treated with the synthesized compounds and left for an incubation period of 48 h. Upon reaching the indicated time point, the media was removed and replaced with 200 μL fresh media containing 0.5 mg/mL of MTT tetrazolium dye (Sigma-Aldrich). Cells were then incubated with MTT solution for 2 h at 37° C. The resultant formazan crystals were dissolved in 200 μl/well of DMSO and absorbance was measured at 570 nm using a microplate reader (Thermo Scientific).

The subject of the next assay is SKBR3. Briefly: MTT cell viability, SKBR3. The class given is cell-based. Particulars: Homo sapiens, SK-BR-3; breast cancer; 48 h of drug treatment; average of three experiments. How it is done:
as §1

In a further assay the test system is MDA-MB-231. Briefly: MTT cell viability, MDA-MB-231. It counts as cell-based. The conditions noted are these: Homo sapiens, breast cancer, 48 h of drug treatment, average of three experiments. How it is done:
as §1

For another assay, the system named is MDA-MB-468. Briefly: MTT cell viability, MDA-MB-468. The class given is cell-based. The conditions noted are these: Homo sapiens, breast cancer, 48 h of drug treatment, average of three experiments. Here is the method: as §1
The test system of the next assay is AGS. Briefly: MTT cell viability, AGS. The class given is cell-based. Particulars: Homo sapiens, stomach cancer, 48 h of drug treatment, average of three experiments. Here is the method: as §1
The subject of the next assay is SKBR3 and SKOV3. As to the kind of experiment: Crystal violet and DAPI staining. The conditions noted are these: compared to compounds 1d and 1k; 48 h. It counts as cell-based, human. How it is done: Colony formation assay: Human Normal epithelial cells, SKBR3, and SKOV3 cells were treated with 1d, 1e and 1k compounds with indicated concentrations for 48 h. Then cells were fixed with colony fixation solution (Acetic acid/Methanol (1:7) vol/vol) at room temperature. 15 minutes later fixation solution was removed and cells were washed again carefully with 1×PBS. Cells were stained with 0.5% crystal violet at room temperature for 20 minutes. Crystal violet was removed and cells were washed carefully 3 times with distilled water to remove excess dye. Colony growth was visualized by crystal violet staining. DAPI staining: SKBR3 and SKOV3 cells were treated with indicated compounds. After 48 h of treatment, the media were removed from cell lines and cells were washed with 1× cold PBS. Cells were fixed with (Acetic acid/Methanol (1:7) vol/vol)) solution for 15 minutes at RT and then washed with 1× cold PBS. Permeabilization was performed with 0.1% Triton X-100 for 5 minutes and then cells were washed with 1× cold PBS. Cells were stain with DAPI solution for 15 minutes at RT and then cells were washed 3 times with 1× cold PBS. Images were taken using a fluorescence microscope.

The test system of a further assay is SKBR3 cells. As to the kind of experiment: Western blot, autophagy- and iron metabolism-related proteins, SKBR3. The class given is cell-based, human. How it is done:
Western Blotting (autophagy- and iron metabolism-related proteins): Cells were grown in DMEM supplemented with 10% FBS and 1×PEST (Penicillin and streptomycin antibiotics) at 37° C. in incubator having humidified atmosphere with 5% CO2. The media were removed and cells were washed twice with 1× cold PBS. Cells lysis was performed with RIPA lysis buffer containing (150 mM sodium chloride, 1.0% NP-40, 0.1% SDS, 50 mM Tris pH 8.0, 0.5% sodium deoxycholate supplemented with protease inhibitors cocktail). Cells were kept on icebox during the lysis process. Cold lysis buffer was added to each well directly and then cells were scraped and collected in 1.5 ml Eppendorf tube. Cell lysis was kept on icebox for 20 minutes and then centrifuged at 4° C. for 10 minutes. The supernatant was collected and the pellet was discarded. After, protein quantification, samples were boiled in 5× loading buffer at 95° C. for 5 minutes. After completion of the gel running and transfer process, the membrane was stained with ponceau solution. After that, the membrane was washed with 1×TBST and then blocked in 5% non-fat dry milk for 1 hr at room temperature. The membrane was washed 3 times with 1×TBST and then incubated with indicated primary antibodies at 4° C. overnight. Primary antibodies were removed; the membrane was washed 3 times with 1×TBST and then incubated with secondary antibodies for 2 h at room temperature. Secondary antibodies were diluted in 5% non-fat dry milk in 1× TB ST. After removal of the secondary antibody, the membrane was washed 3 times with 1×TBST. The membrane was incubated in ECL solution and the signal was developed using Gel Doc system from Biorad.
(A western blot detects proteins with antibodies after separation by electrophoresis.)

With `Cc1ccc2c(c1)c1c3n2[C@@]2(C=C/C(=N\Nc4ccc(C(F)(F)F)cc4)CC2)CC[C@@H]3NCC1` [Compound 1h], in the assay with Hep3B cells, the PARP cleavage entry was “PARP cleavage”; the “Cleavage of caspase7 and caspase-3” value is given as “cleavage”; the c-Myc oncogene level entry is recorded as “downregulate”.

As for `COc1ccc2c(c1)c1c3n2[C@@]2(C=C/C(=N\Nc4ccc(C(F)(F)F)cc4)CC2)CC[C@@H]3NCC1` [Compound 1k], the IC50 (as a rule, the concentration at which inhibition is half-maximal) in the assay with SKOV3 stood at 4.68 ± 0.22 µM; with SKBR3, 4.1 ± 0.21 µM; with MDA-MB-231, 4.03 ± 0.16 µM; with MDA-MB-468, 2.49 ± 0.16 µM; in the assay with AGS it was 4.66 ± 0.15 µM.

As for `FC(F)(F)Oc1ccc(N/N=C2\C=C[C@@]3(CC2)CC[C@@H]2NCCc4c2n3c2ccccc42)cc1` [Compound 1f], in the assay with Hep3B cells, the PARP cleavage entry was “PARP cleavage”; the “Cleavage of caspase7 and caspase-3” value is “cleavage”; the c-Myc oncogene level entry was “downregulate”.

Regarding `FC(F)(F)c1ccc(N/N=C2\C=C[C@@]3(CC2)CC[C@@H]2NCCc4c2n3c2ccccc42)cc1` (racemic) [Compound 1e], the concentration for half-maximal inhibition (IC50) is 3.84 ± 0.21 µM in the assay with SKOV3; 1.96 ± 0.08 µM in the assay with SKBR3; 3.63 ± 0.06 µM with MDA-MB-231; 2.5 ± 0.13 µM with MDA-MB-468; 3.31 ± 0.12 µM with AGS. For the same compound, the “Nuclear damage in cancer cell lines (DAPI staining)” value in the assay with SKBR3 and SKOV3 was “greater levels of nuclear damage”. Also, the “Expression of BECLIN-1” value in the assay with SKBR3 cells is listed as “induced”. Moreover, in the assay on SKBR3 cells, the “Expression of Ferritin (FTH1)” value is “induced”. Moreover, in the assay with SKBR3 cells, the “Expression of LC3B1/II” value is given as “induced”. Further, the “Expression of pH2AX” value in the assay on SKBR3 cells was “induced”.
